Source: the supplement of paper PMC8612539

Tested on: Pasteurella multocida
Assay: minimum inhibitory concentration (MIC)
Experimental: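 Broth microdilution MIC (Sensititre BOPO7F bovine plate, CLSI methods) of 19 antimicrobials against field isolates of P. multocida, M. haemolytica, H. somni (deep nasopharyngeal swabs) and E. coli, Enterococcus spp. (rectal swabs) from weaned dairy heifers. Incubation 16-24 h at 35 C. MIC is the lowest concentration preventing visible growth. Values with <= or > lie at the tested range limits. Trimethoprim-sulfamethoxazole is given as the trimethoprim component of a 1:19 mixture.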

Measured: minimum inhibitory concentration

COc1cc(Cc2cnc(N)nc2N)cc(OC)c1OC.Cc1cc(NS(=O)(=O)c2ccc(N)cc2)no1 [trimethoprim-sulfamethoxazole]
> 2 µg/mL: isolate (source animal id): 88 | isolate (source animal id): 115 | isolate (source animal id): 121 | isolate (source animal id): 128 | isolate (source animal id): 135 | isolate (source animal id): 136 | isolate (source animal id): 150 | isolate (source animal id): 151 | isolate (source animal id): 160 | isolate (source animal id): 164 | isolate (source animal id): 165 | isolate (source animal id): 280
≤ 2 µg/mL: isolate (source animal id): 10 | isolate (source animal id): 11 | isolate (source animal id): 12 | isolate (source animal id): 19 | isolate (source animal id): 23 | isolate (source animal id): 26 | isolate (source animal id): 30 | isolate (source animal id): 34 | isolate (source animal id): 36 | isolate (source animal id): 37 | isolate (source animal id): 46 | isolate (source animal id): 48 | isolate (source animal id): 49 | isolate (source animal id): 54 | isolate (source animal id): 55 | isolate (source animal id): 58 | isolate (source animal id): 60 | isolate (source animal id): 61 | isolate (source animal id): 63 | isolate (source animal id): 64 | isolate (source animal id): 65 | isolate (source animal id): 66 | isolate (source animal id): 67 | isolate (source animal id): 69 | isolate (source animal id): 73 | isolate (source animal id): 75 | isolate (source animal id): 76 | isolate (source animal id): 77 | isolate (source animal id): 78 | isolate (source animal id): 80 | isolate (source animal id): 82 | isolate (source animal id): 83 | isolate (source animal id): 92 | isolate (source animal id): 94 | isolate (source animal id): 98 | isolate (source animal id): 104 | isolate (source animal id): 117 | isolate (source animal id): 118 | isolate (source animal id): 124 | isolate (source animal id): 125 | isolate (source animal id): 131 | isolate (source animal id): 140 | isolate (source animal id): 144 | isolate (source animal id): 146 | isolate (source animal id): 153 | isolate (source animal id): 155 | isolate (source animal id): 157 | isolate (source animal id): 167 | isolate (source animal id): 168 | isolate (source animal id): 169 | isolate (source animal id): 170 | isolate (source animal id): 171 | isolate (source animal id): 172 | isolate (source animal id): 173 | isolate (source animal id): 174 | isolate (source animal id): 175 | isolate (source animal id): 176 | isolate (source animal id): 177 | isolate (source animal id): 178 | isolate (source animal id): 179 | isolate (source animal id): 182 | isolate (source animal id): 192 | isolate (source animal id): 193 | isolate (source animal id): 195 | isolate (source animal id): 196 | isolate (source animal id): 197 | isolate (source animal id): 198 | isolate (source animal id): 199 | isolate (source animal id): 200 | isolate (source animal id): 201 | isolate (source animal id): 203 | isolate (source animal id): 204 | isolate (source animal id): 205 | isolate (source animal id): 206 | isolate (source animal id): 207 | isolate (source animal id): 208 | isolate (source animal id): 209 | isolate (source animal id): 210 | isolate (source animal id): 213 | isolate (source animal id): 216 | isolate (source animal id): 223 | isolate (source animal id): 227 | isolate (source animal id): 229 | isolate (source animal id): 233 | isolate (source animal id): 234 | isolate (source animal id): 237 | isolate (source animal id): 241 | isolate (source animal id): 245 | isolate (source animal id): 247 | isolate (source animal id): 250 | isolate (source animal id): 254 | isolate (source animal id): 255 | isolate (source animal id): 258 | isolate (source animal id): 261 | isolate (source animal id): 262 | isolate (source animal id): 269 | isolate (source animal id): 270 | isolate (source animal id): 274 | isolate (source animal id): 275 | isolate (source animal id): 276 | isolate (source animal id): 277 | isolate (source animal id): 278 | isolate (source animal id): 279 | isolate (source animal id): 284 | isolate (source animal id): 285 | isolate (source animal id): 287 | isolate (source animal id): 290 | isolate (source animal id): 294 | isolate (source animal id): 295 | isolate (source animal id): 296 | isolate (source animal id): 307 | isolate (source animal id): 310 | isolate (source animal id): 311 | isolate (source animal id): 312 | isolate (source animal id): 313 | isolate (source animal id): 315 | isolate (source animal id): 316 | isolate (source animal id): 318 | isolate (source animal id): 319 | isolate (source animal id): 320 | isolate (source animal id): 321 | isolate (source animal id): 322 | isolate (source animal id): 324 | isolate (source animal id): 325 | isolate (source animal id): 328 | isolate (source animal id): 330 | isolate (source animal id): 331 | isolate (source animal id): 333 | isolate (source animal id): 336 | isolate (source animal id): 337 | isolate (source animal id): 339 | isolate (source animal id): 340 | isolate (source animal id): 341
